From ChEMBL document CHEMBL5385867, “2-Phenoxy-3, 4'-bipyridine derivatives inhibit AURKB-dependent mitotic processes by disrupting its localization” (Eur J Med Chem, 2023)
Each block holds one compound with its values, some of them ahead of it. The source made the active and inactive calls. No cut-off for these calls is given here.

Tests used:
[1] = target: Aurora kinase B (Homo sapiens) (UniProt Q96GD4); experiment: Disruption of AURKB localization in human RPE-MYC transfected with GFP-H2B assessed as minimal effective concentration that induces mitotic arrest, polyploidy, cell death and cell number reduction by MIPS assay; assay type: cell-based
[2] = target: Aurora kinase B (Homo sapiens) (UniProt Q96GD4); experiment: Disruption of AURKB localization in human RPE-MYC cells transfected with BCL2 assessed as loss of localization of microtubules at the spindle-midzone by immunofluorescence staining based analysis; assay type: cell-based
[3] = target: Aurora kinase B (Homo sapiens) (UniProt Q96GD4); experiment: Inhibition of Aurora kinase B in human RPE-MYC cells transfected with BCL2 assessed as inhibition of histone H3 phosphorylation at Ser10 residue at highest concentration measured after 6 hrs by immunofluorescence staining based analysis; assay type: cell-based
[4] = target: Aurora kinase B (Homo sapiens) (UniProt Q96GD4); experiment: Inhibition of Aurora kinase B in human RPE-MYC cells transfected with BCL2 assessed as inhibition of histone H3 phosphorylation at Ser10 residue at MEC for polyploidy measured after 6 hrs by immunofluorescence staining based analysis; assay type: cell-based
[5] = target: Aurora kinase B (Homo sapiens) (UniProt Q96GD4); experiment: Disruption of AURKB localization in human RPE-MYC cells transfected with BCL2 assessed as loss of localization of MKLP1 at the spindle-midzone by immunofluorescence staining based analysis; assay type: cell-based
[6] = target: Aurora kinase B (Homo sapiens) (UniProt Q96GD4); experiment: Disruption of AURKB localization in human RPE-MYC cells transfected with BCL2 assessed as mislocalization of AURKB at the spindle zone in anaphase cells by immunofluorescence staining based analysis; assay type: cell-based
[7] = target: Aurora kinase B (Homo sapiens) (UniProt Q96GD4); experiment: Disruption of AURKB localization in human RPE-MYC cells transfected with BCL2 assessed as loss of localization of PLK1 at the spindle-midzone by immunofluorescence staining based analysis; assay type: cell-based
[8] = target: Aurora kinase B (Homo sapiens) (UniProt Q96GD4); experiment: Disruption of AURKB localization in human RPE-MYC cells transfected with BCL2 assessed as localization of AURKB on kinetochore at 40 nM measured after 6 hrs by immunofluorescence staining based analysis; assay type: cell-based
NCI-H23 [9] = experiment: Antitumor activity against human NCI-H23 cells xenografted in BALB/c mouse assessed as suppression of tumor growth at 50 mg/kg, po bid for 7 days; assay type: functional, organism-based; details: time 7.0 day
[10] = test system: Phosphatidylinositol 4,5-bisphosphate 3-kinase catalytic subunit alpha isoform (Homo sapiens), P42336 [E545K]; experiment: Inhibition of PI3KCA E545K mutant (unknown origin)
Mus musculus [11] = experiment: Induction of mitotic arrest in BALB/c mouse xenografted with human NCI-H23 cells assessed as increase in mitotic index in tumor at 50 mg/kg, po bid for 7 days by immunohistochemical staining based analysis; assay type: functional, organism-based; details: time 7.0 day
[12] = target: Aurora kinase B (Homo sapiens) (UniProt Q96GD4); experiment: Disruption of AURKB localization in human RPE-MYC cells transfected with BCL2 assessed as loss of localization of microtubules at the spindle-midzone at 40 nM measured after 6 hrs by immunofluorescence staining based analysis; assay type: cell-based
[13] = target: Aurora kinase B (Homo sapiens) (UniProt Q96GD4); experiment: Disruption of AURKB localization in human RPE-MYC cells transfected with BCL2 assessed as mislocalization of AURKB at the spindle zone in anaphase cells at 40 nM measured after 6 hrs by immunofluorescence staining based analysis; assay type: cell-based
[14] = target: Aurora kinase B (Homo sapiens) (UniProt Q96GD4); experiment: Inhibition of Aurora kinase B in human RPE-MYC cells transfected with BCL2 assessed as inhibition of histone H3 phosphorylation at Ser10 residue at 40 nM measured after 6 hrs by immunofluorescence staining based analysis; assay type: cell-based
[15] = Cmax in BALB/c mouse at 50 mg/kg, po compound formulated in PEG300 and administered as single dose by LC-MS/MS analysis; assay type: ADME, organism-based; parameters: dose 50 mg/kg, route po; details: in vivo
[16] = target: T1, Aurora kinase A (Homo sapiens) (UniProt O14965); experiment: Inhibition of Aurora kinase A (unknown origin)
T1 sequence (whole entry): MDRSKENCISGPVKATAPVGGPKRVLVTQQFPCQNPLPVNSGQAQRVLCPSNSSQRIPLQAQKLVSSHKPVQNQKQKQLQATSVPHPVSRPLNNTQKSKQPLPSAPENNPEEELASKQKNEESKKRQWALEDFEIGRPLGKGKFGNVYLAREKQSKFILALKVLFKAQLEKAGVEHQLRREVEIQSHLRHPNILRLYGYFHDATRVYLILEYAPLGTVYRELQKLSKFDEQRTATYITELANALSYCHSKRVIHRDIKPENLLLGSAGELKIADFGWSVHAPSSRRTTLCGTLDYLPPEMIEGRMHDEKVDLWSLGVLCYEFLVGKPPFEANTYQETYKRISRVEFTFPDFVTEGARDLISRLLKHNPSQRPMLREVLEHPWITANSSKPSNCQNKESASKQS

[17] = target: Aurora kinase B (Homo sapiens) (UniProt Q96GD4); experiment: Inhibition of Aurora kinase B (unknown origin)
[18] = target: Aurora kinase B (Homo sapiens) (UniProt Q96GD4); experiment: Disruption of AURKB localization in human RPE-MYC cells transfected with BCL2 assessed as localization of PLK1 at mitotic centrosomes at 40 nM measured after 6 hrs by immunofluorescence staining based analysis; assay type: cell-based
[19] = target: Aurora kinase B (Homo sapiens) (UniProt Q96GD4); experiment: Disruption of AURKB localization in human RPE-MYC cells transfected with BCL2 assessed as loss of localization of MKLP1 at the spindle-midzone at 40 nM measured after 6 hrs by immunofluorescence staining based analysis; assay type: cell-based
Mus musculus [20] = experiment: Induction of apoptosis in BALB/c mouse xenografted with human NCI-H23 cells assessed as increase in caspase-3 activation in tumor at 50 mg/kg, po bid for 7 days by immunohistochemical staining based analysis; assay type: functional, organism-based; details: time 7.0 day
[21] = target: Aurora kinase B (Homo sapiens) (UniProt Q96GD4); experiment: Disruption of AURKB localization in human RPE-MYC cells transfected with BCL2 assessed as localization of PLK1 at spindle poles at 40 nM measured after 6 hrs by immunofluorescence staining based analysis; assay type: cell-based
[22] = Dose normalized AUC (0 to 6 hrs) in BALB/c mouse at 50 mg/kg, po compound formulated in PEG300 and administered as single dose by LC-MS/MS analysis; assay type: ADME, organism-based; details: in vivo
[23] = target: Aurora kinase B (Homo sapiens) (UniProt Q96GD4); experiment: Disruption of AURKB localization in human RPE-MYC cells transfected with BCL2 assessed as loss of localization of PLK1 at the spindle-midzone at 40 nM measured after 6 hrs by immunofluorescence staining based analysis; assay type: cell-based
NCI-H23 [24] = experiment: Antitumor activity against human NCI-H23 cells xenografted in BALB/c mouse assessed as reduction in cellular density in tumor at 50 mg/kg, po bid for 7 days by Hematoxylin and Eosin staining based analysis; assay type: functional, organism-based; details: time 7.0 day
[25] = target: Aurora kinase B (Homo sapiens) (UniProt Q96GD4); experiment: Inhibition of Aurora kinase B in human RPE-MYC cells transfected with BCL2 assessed as inhibition of histone H3 phosphorylation at Ser10 residue by immunofluorescence staining based analysis; assay type: cell-based
[26] = target: T1, Aurora kinase A (Homo sapiens); experiment: Inhibition of Aurora kinase A in human RPE-MYC cells transfected with BCL2 assessed as inhibition of protein autophosphorylation at Thr288 residue by immunofluorescence staining based analysis; assay type: cell-based
[27] = target: Epithelial discoidin domain-containing receptor 1 (Homo sapiens) (UniProt Q08345); experiment: Inhibition of DDR1 (unknown origin)
Chain of Epithelial discoidin domain-containing receptor 1 (Homo sapiens) (Q08345 whole entry, the tested form may be a part): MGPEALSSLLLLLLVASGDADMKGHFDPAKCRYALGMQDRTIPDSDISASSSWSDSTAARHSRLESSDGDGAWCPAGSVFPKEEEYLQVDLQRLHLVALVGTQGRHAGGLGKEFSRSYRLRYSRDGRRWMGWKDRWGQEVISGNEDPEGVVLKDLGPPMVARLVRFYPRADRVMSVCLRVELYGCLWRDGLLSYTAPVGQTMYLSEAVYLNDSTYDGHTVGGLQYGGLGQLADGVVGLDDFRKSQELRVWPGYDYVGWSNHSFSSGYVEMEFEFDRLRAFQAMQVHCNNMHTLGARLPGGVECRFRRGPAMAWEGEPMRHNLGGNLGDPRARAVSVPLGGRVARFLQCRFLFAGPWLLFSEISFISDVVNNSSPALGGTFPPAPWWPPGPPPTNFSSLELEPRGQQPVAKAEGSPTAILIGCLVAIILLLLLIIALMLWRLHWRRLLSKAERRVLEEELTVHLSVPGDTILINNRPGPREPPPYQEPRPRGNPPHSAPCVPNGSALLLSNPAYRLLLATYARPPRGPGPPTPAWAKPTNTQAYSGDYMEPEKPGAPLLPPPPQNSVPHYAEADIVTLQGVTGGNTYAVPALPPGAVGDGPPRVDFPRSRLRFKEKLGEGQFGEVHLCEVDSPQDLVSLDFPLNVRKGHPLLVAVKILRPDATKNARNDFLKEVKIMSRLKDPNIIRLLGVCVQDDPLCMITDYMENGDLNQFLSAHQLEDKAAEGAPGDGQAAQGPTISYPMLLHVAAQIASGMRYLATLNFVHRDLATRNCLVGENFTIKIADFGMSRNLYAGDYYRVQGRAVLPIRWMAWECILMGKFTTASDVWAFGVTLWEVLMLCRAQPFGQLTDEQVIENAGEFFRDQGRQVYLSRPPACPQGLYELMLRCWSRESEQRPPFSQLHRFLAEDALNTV

Chain of Aurora kinase B (Homo sapiens) (Q96GD4 whole entry): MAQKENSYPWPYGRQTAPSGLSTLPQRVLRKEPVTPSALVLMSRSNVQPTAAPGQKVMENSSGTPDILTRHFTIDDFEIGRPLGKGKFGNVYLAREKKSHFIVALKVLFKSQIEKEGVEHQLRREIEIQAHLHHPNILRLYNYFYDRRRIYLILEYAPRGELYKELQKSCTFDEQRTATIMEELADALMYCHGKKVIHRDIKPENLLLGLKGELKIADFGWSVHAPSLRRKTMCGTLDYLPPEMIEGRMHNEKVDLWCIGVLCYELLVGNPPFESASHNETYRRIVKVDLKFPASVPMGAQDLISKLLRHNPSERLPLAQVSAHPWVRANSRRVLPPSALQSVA
Chain of Phosphatidylinositol 4,5-bisphosphate 3-kinase catalytic subunit alpha isoform (Homo sapiens), P42336 [E545K] (P42336 whole entry E545K, canonical isoform): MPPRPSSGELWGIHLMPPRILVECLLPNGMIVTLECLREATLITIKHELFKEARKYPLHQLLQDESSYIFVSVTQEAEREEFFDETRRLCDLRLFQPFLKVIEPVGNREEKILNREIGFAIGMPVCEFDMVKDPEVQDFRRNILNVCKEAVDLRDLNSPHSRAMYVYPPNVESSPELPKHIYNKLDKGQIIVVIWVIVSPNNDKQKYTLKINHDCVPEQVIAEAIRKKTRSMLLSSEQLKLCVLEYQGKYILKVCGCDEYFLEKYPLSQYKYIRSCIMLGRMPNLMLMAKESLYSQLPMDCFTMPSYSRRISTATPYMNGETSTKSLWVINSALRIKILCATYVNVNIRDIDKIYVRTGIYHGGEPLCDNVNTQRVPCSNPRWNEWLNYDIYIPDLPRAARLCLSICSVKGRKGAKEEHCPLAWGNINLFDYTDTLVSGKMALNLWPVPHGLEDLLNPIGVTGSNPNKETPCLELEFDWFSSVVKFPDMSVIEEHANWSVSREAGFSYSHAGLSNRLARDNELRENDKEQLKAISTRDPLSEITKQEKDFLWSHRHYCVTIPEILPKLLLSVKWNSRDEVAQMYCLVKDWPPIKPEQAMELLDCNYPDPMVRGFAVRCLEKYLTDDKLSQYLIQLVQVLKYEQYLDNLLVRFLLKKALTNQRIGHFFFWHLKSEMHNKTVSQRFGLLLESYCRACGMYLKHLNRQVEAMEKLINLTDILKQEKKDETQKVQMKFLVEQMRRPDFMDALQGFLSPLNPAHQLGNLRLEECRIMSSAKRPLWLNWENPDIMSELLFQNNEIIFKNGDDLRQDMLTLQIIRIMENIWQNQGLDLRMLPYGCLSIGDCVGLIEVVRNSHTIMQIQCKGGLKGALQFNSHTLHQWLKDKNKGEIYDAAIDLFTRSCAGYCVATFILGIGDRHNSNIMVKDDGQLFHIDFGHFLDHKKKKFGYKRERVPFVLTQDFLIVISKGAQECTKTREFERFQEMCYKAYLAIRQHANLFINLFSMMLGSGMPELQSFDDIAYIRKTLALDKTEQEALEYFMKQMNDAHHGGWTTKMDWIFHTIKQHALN

SMILES: COc1cc(OC)cc(Oc2ncccc2-c2ccnc(N)n2)c1
MEC [1]: 0.37 µM

SMILES: COc1ccc(Oc2ncccc2-c2ccnc(N)n2)cc1
MEC [1]: > 20 µM

SMILES: CNC(=O)c1cc(OC)cc(Oc2ncccc2-c2ccncc2)c1
MEC [1]: 0.47 µM

Activity [2]: Active
inhibition [3]: < 68%
inhibition [4]: Active
Activity [5]: Active
Activity [6]: Active
Activity [7]: Active
SMILES: COc1cc(NC(C)=O)cc(Oc2ncccc2-c2ccnc(OC)c2)c1
MEC [1]: 0.03 µM

Activity [8]: inactive
inhibition [10]: Active
Activity [12]: Active
Activity [13]: Active
inhibition [14]: Active
Cmax [15]: 6.9 µM
inhibition [3]: < 68%
inhibition [16]: inactive
inhibition [4]: Active
inhibition [17]: inactive
Activity [18]: inactive
Activity [19]: Active
Activity [21]: inactive
AUC/dose [22]: 0.35 µM·h/mg/kg
Activity [23]: Active
SMILES: CNC(=O)c1cc(Oc2ncccc2-c2ccnc(OC)c2)cc(OC(F)(F)F)c1
MEC [1]: 0.02 µM
Activity (NCI-H23 [9]): Active
Activity (Mus musculus [11]): Active
Activity (Mus musculus [20]): Active
Activity (NCI-H23 [24]): Active

Activity [2]: Active
inhibition [4]: inactive
Activity [5]: Active
Activity [6]: Active
Activity [7]: Active
SMILES: COc1cc(NC(C)=O)cc(Oc2ncccc2-c2ccnc(C)c2)c1
MEC [1]: 0.07 µM

SMILES: COC(=O)c1cc(OC)cc(Oc2ncccc2-c2ccnc(N)n2)c1
MEC [1]: 0.03 µM

SMILES: COc1cccc(Oc2ncccc2-c2ccnc(N)n2)c1
MEC [1]: 1.5 µM

SMILES: CNC(=O)c1cc(OC)cc(Oc2ncccc2-c2ccnc(C)c2)c1
MEC [1]: 0.12 µM

SMILES: COc1cc(OC)cc(Oc2ncccc2-c2ccnc(C)n2)c1
MEC [1]: 1.29 µM

inhibition [25]: inactive
inhibition [26]: inactive
SMILES: COc1cc(OC)cc(Oc2ncccc2-c2ccnc(OC)c2)c1
MEC [1]: 0.07 µM

SMILES: COc1cc(OC)cc(Oc2ncccc2-c2cccc(N)n2)c1
MEC [1]: 0.96 µM

SMILES: COc1cc(OC)cc(Oc2ncccc2-c2cccnc2)c1
MEC [1]: 0.91 µM

Activity [2]: Active
inhibition [27]: Active
inhibition [4]: inactive
Activity [5]: Active
Activity [6]: Active
Activity [7]: Active
SMILES: COc1cc(NC(C)=O)cc(Oc2ncccc2-c2ccncc2)c1
MEC [1]: 0.11 µM

SMILES: Nc1cccc(Oc2ncccc2-c2ccnc(N)n2)c1
MEC [1]: 20 µM

SMILES: COC(=O)c1ccc(Oc2ncccc2-c2ccnc(N)n2)cc1
MEC [1]: > 20 µM
